pEC50, pKi: −log10 of the molar value. Counter-ions that a name gives are not always drawn.
Experiments:
human 5-HT2C receptor [1] = biological target: T1, human 5-HT2C receptor (Homo sapiens, UniProt P28335); assay: In vitro functional assay, intracellular calcium mobilisation in transfected HEK293 cells (FLUO-3); format: cell-based; conditions: for pEC50: calcium mobilisation, HEK293 cells; for Efficacy 5-HT2C: maximum response at 1 μM relative to maximum response of 5-HT at 1 μM
T1 construct: expressed in transfected cells
T1 sequence (P28335 33-458): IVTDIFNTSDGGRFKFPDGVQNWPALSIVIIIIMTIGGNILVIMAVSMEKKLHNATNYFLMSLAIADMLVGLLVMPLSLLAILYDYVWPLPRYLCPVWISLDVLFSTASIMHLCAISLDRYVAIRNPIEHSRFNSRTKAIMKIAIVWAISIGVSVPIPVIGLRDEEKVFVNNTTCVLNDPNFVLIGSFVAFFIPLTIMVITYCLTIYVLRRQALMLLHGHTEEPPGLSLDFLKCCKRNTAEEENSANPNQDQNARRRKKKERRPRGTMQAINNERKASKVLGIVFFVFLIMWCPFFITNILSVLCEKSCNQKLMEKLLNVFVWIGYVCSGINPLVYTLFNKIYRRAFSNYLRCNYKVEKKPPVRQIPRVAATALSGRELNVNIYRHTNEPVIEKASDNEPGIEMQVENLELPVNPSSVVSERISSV
Description: The agonist efficacy at the 5-HT2C receptor of the compounds in the Examples was determined by the ability of each compound to mobilise intracellular calcium in transfected HEK293 cells, stably expressing the human 5-HT2C receptor protein, using the calcium-chelating fluorescent dye FLUO-3 (Sigma, St. Louis, Mo., U.S.A.).

human 5-HT1A receptor = biological target: T2, human 5-HT1A receptor (Homo sapiens, UniProt P08908); assay: Affinity assay, displacement of 3H-8-OH-DPAT, CHO cell line; format: binding; conditions: 3H-8-OH-DPAT radioligand, CHO cells
T2 construct: expressed in transfected cells; host or cells: CHO cell line
T2 sequence (P08908 1-422): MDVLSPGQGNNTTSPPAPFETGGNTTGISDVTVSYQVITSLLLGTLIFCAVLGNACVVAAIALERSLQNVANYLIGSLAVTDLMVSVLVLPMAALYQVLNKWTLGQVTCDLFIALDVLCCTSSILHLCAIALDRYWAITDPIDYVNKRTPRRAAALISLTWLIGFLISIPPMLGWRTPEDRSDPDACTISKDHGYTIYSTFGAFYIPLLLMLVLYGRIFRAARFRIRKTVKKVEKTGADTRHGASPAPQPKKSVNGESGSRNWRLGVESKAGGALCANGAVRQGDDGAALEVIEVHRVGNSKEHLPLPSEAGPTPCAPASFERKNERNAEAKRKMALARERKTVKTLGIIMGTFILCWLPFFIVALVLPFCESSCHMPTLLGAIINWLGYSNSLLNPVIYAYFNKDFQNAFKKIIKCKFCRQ
Description: (§1) The binding affinities of the compounds for the human 5-HT2A and 5-HT2B receptors in CHO cell lines were determined using ^3H-labelled lysergic acid diethyl amide (LSD) and 5-HT, respectively, as radioligands. The binding affinities of the compounds for the human 5-HT1A and 5-HT1B receptors in CHO cell lines were determined similarly using ^3H-labelled 8-hydroxy-2-(di-n-propylamino)tetralin (8-OH-DPAT) and 5-HT, respectively, as radioligands.

human 5-HT2A receptor [2] = biological target: T3, human 5-HT2A receptor (Homo sapiens, UniProt P28223); assay: Affinity assay, displacement of 3H-LSD, CHO cell line; format: binding; conditions: 3H-LSD radioligand, CHO cells
T3 construct: expressed in transfected cells; host or cells: CHO cells
Description: as §1

human 5-HT2B receptor [3] = biological target: T4, human 5-HT2B receptor (Homo sapiens, UniProt P41595); assay: In vitro functional assay, intracellular calcium mobilisation in CHO cells; format: cell-based; conditions: for pEC50: calcium mobilisation, CHO cells; for Efficacy 5-HT2B: maximum response at 1 μM relative to maximum response of 5-HT at 1 μM
T4 construct: expressed in transfected cells; host or cells: CHO cells
Description: (§2) The ability of the compounds to mobilise intracellular calcium at the 5HT2A and 5-HT2B receptors was determined similarly using CHO cells expressing the human 5-HT2A or human 5-HT2B receptors.
(§3) The maximum functional responses of the compounds, at 1 μM, at the 5-HT2A, 5-HT2B and 5-HT2C receptors are expressed relative to the maximum response of 5-HT (serotonin) at a concentration of 1 μM.

human 5-HT2A receptor [4] = biological target: T3, human 5-HT2A receptor; assay: as above; format: cell-based; conditions: for pEC50: calcium mobilisation, CHO cells; for Efficacy 5-HT2A: maximum response at 1 μM relative to maximum response of 5-HT at 1 μM
Description: as §2, §3

human 5-HT2C receptor [5] = biological target: T1, human 5-HT2C receptor; assay: Affinity assay, displacement of 3H-5-HT, membranes of transfected HEK293 cells, Scintillation Proximity Assay; format: binding; conditions: 3H-5-HT radioligand
Description: The receptor affinity of compounds in the Examples was determined in competition experiments, where the ability of each compound in serial dilution to displace ^3H-labelled 5-HT, bound to membranes prepared from a transfected HEK293 cell line stably expressing the human 5-HT2C receptor protein, was monitored by Scintillation Proximity Assay technology. Non-specific binding was defined using 5 μM mianserin.

human 5-HT2B receptor [6] = biological target: T4, human 5-HT2B receptor; assay: Affinity assay, displacement of 3H-5-HT, CHO cell line; format: binding; conditions: 3H-5-HT radioligand, CHO cells
Description: as §1

human 5-HT1B receptor = biological target: T5, human 5-HT1B receptor (Homo sapiens, UniProt P28222); assay: as above; format: binding; conditions: 3H-5-HT radioligand, CHO cells
T5 construct: expressed in transfected cells; host or cells: CHO cell line
Description: as §1

T4 sequence (P41595 whole entry): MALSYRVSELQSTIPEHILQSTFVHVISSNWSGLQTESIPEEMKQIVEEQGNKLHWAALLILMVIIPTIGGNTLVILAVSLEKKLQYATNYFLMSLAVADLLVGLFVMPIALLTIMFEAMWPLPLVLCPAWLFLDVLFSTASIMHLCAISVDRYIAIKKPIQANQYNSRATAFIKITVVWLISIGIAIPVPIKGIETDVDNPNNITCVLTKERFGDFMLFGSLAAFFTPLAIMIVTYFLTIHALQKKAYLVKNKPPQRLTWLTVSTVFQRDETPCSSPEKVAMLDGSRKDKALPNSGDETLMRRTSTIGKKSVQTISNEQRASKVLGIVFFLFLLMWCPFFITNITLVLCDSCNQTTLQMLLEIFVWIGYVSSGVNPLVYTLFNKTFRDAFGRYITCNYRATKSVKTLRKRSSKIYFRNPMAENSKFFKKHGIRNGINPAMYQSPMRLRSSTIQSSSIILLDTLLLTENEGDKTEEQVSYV
T3 sequence (P28223 whole entry): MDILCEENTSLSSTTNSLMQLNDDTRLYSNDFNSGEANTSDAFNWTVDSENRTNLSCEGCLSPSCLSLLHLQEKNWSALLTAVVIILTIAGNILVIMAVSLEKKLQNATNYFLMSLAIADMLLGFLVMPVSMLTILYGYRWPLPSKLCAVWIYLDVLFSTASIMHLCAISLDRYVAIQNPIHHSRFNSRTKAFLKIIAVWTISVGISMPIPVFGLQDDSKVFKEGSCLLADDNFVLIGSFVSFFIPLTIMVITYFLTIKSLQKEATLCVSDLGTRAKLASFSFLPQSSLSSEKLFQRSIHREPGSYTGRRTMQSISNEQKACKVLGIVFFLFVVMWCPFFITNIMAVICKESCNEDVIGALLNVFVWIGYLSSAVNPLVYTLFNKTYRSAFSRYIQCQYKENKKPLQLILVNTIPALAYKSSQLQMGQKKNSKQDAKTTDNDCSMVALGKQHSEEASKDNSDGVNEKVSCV
T5 sequence (P28222 whole entry): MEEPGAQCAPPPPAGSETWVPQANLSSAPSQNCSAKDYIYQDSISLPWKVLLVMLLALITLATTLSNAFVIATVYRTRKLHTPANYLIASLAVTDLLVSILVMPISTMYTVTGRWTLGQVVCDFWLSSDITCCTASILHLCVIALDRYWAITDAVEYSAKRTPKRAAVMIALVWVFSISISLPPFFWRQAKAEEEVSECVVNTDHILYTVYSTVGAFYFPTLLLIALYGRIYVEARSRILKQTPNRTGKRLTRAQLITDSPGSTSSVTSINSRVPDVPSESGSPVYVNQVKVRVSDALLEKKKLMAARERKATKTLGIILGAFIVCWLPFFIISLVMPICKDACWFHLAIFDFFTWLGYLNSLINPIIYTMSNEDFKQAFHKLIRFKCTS

Row | SMILES | melting point | pEC50 (human 5-HT2C receptor [1]) | Efficacy 5-HT2C (human 5-HT2C receptor [1]) | pKi (human 5-HT1A receptor) | pKi (human 5-HT2A receptor [2]) | pEC50 (human 5-HT2B receptor [3]) | Efficacy 5-HT2B (human 5-HT2B receptor [3]) | pEC50 (human 5-HT2A receptor [4]) | Efficacy 5-HT2A (human 5-HT2A receptor [4]) | pKi (human 5-HT2C receptor [5]) | pKi (human 5-HT2B receptor [6]) | pKi (human 5-HT1B receptor)
1 | C[C@@H]1CNCCN1c1nccnc1OCCOc1cccnc1OCCN(C)C (as salt: acetate) [Example 1, N,N-Dimethyl-(2-(3-[2-(2-(R)-methyl-3,4,5,6-tetrahydro-2H-[1,2′]bipyrazinyl-3′-yloxy)-ethoxy]-pyridin-2-yloxy)-ethyl)-amine] | 75 °C |  |  |  |  |  |  |  |  |  |  | 
2 | CC(C)N(CCOc1ncccc1OCCOc1nccnc1N1CCNC[C@H]1C)C(C)C (as salt: acetate) [Example 2, N,N-Diisopropyl-(2-(3-[2-(2-(R)-methyl-3,4,5,6-tetrahydro-2H-[1,2′]bipyrazinyl-3′-yloxy)-ethoxy]-pyridin-2-yloxy)-ethyl)-amine] | 87 °C |  |  |  |  |  |  |  |  |  |  | 
3 | C[C@@H]1CNCCN1c1nccnc1OCCOc1cccnc1OCCN(C)C [Example 1, N,N-Dimethyl-(2-(3-[2-(2-(R)-methyl-3,4,5,6-tetrahydro-2H-[1,2′]bipyrazinyl-3′-yloxy)-ethoxy]-pyridin-2-yloxy)-ethyl)-amine] |  | 8.38 | 117% | 6.10 | < 6.00 | 5.71 | 16% | 5.92 | 14% | 7.92 | < 6.00 | < 6.00
4 | CC(C)N(CCOc1ncccc1OCCOc1nccnc1N1CCNC[C@H]1C)C(C)C [Example 2, N,N-Diisopropyl-(2-(3-[2-(2-(R)-methyl-3,4,5,6-tetrahydro-2H-[1,2′]bipyrazinyl-3′-yloxy)-ethoxy]-pyridin-2-yloxy)-ethyl)-amine] |  | 8.41 | 111% | 6.42 | < 6.00 | 6.05 | 33% | 6.59 | 40% | 8.00 | < 6.00 | 6.70

— patent US7226925B2, “Compounds, their use and preparation” (Biovitrum AB, priority 2002, dated 2007)
